Columns and labels:
aorta rings = assay: Vessel-relaxing action in vitro (aorta rings, phenylephrine contraction); conditions: concentration required to reduce phenylephrine-induced contraction of rabbit aorta rings by 50%
Protocol: B-1. Vessel-relaxing Action in vitro
Rabbits are stunned with a blow on the back of the neck and exsanguinated. The aorta is removed, freed from adhering tissue, separated into rings with a width of 1.5 mm, and placed individually, with preloading, in 5-ml organ baths with carbogen-gassed Krebs-Henseleit solution at 37° C. with the following composition (mM in each case): sodium chloride: 119; potassium chloride: 4.8; calcium chloride dihydrate: 1; magnesium sulphate heptahydrate: 1.4; potassium dihydrogen phosphate: 1.2; sodium hydrogen carbonate: 25; glucose: 10. The contraction force is recorded with Statham UC2 cells, amplified and digitized via an A/D converter (DAS-1802 HC, Keithley Instruments Munich) and recorded in parallel on a continuous-line recorder. To produce contraction, phenylephrine is added to the bath cumulatively in increasing concentration. After several control cycles, the test substance is added in increasing dosage in each subsequent pass and the level of contraction is compared with the level of contraction reached in the immediately preceding pass. This is used for calculating the concentration that is required to reduce the level of the control value by 50% (IC50 value). The standard application volume is 5 μl, and the proportion of DMSO in the bath solution corresponds to 0.1%.

[1] = target: T1, human phosphodiesterase 5 (PDE-5) (Homo sapiens, UniProt O76074); assay: Inhibition of human phosphodiesterase 5 (PDE-5), SPA assay; type: biochemical; conditions: PDE-5 preparation from human platelets, [8-3H]cGMP substrate
T1 construct: PDE-5 preparations are obtained from human platelets by lysis; from tissue; host or cells: human platelets
Outline: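 PDE-5 partially purified from human platelets by Mono Q chromatography, diluted so under 70% of [8-3H]cGMP (0.025 μCi) converted. Compounds at 4 μM to 0.0018 μM final, Tris-HCl pH 7.5 with MgCl2, 60 min at room temperature. Yttrium SPA beads stop reaction; IC50 from concentration–inhibition plots.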

[2] = target: T2, recombinant guanylate cyclase reporter cell line (Rattus norvegicus, UniProt P19686+P20595); assay: Action on recombinant guanylate cyclase reporter cell line; type: cell-based
T2 construct: expressed in transfected cells
T2 sequence (P20595 1-619): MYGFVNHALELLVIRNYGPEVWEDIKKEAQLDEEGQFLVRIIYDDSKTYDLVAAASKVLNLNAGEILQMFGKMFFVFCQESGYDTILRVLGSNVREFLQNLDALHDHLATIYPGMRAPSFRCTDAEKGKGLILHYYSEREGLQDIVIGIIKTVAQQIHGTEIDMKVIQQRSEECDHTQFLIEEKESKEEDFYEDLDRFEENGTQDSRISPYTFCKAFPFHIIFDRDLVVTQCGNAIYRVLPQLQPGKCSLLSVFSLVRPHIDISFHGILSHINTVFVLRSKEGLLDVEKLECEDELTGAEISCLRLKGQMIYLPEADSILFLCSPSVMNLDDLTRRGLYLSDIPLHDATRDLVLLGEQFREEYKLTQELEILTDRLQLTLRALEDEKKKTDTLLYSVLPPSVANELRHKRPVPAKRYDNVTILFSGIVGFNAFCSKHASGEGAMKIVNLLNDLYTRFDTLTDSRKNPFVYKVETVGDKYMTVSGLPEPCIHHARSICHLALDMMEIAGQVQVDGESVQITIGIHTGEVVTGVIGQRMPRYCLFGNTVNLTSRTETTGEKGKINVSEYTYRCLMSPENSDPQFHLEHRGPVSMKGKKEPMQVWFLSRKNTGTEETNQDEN
T2 sequence (P19686 1-690): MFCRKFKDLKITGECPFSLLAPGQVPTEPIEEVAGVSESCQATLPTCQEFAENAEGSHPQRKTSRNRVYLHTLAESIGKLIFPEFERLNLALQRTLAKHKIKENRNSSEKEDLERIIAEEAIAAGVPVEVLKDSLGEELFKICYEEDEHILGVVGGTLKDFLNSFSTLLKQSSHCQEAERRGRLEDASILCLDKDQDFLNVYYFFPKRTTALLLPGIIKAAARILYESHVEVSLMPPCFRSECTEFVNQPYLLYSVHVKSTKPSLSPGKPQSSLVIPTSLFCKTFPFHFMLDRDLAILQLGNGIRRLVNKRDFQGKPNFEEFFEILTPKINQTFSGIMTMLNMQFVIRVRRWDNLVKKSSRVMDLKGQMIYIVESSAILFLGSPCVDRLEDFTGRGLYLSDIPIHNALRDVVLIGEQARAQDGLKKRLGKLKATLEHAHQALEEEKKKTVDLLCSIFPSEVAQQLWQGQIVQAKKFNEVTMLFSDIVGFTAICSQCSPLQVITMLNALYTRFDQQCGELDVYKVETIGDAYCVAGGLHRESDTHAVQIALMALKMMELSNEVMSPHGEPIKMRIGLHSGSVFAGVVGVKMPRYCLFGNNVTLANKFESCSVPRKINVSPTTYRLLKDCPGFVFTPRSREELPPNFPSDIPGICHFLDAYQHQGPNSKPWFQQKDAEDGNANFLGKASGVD
Protocol: B-2. Action on Recombinant Guanylate Cyclase Reporter Cell Line
The cellular action of the compounds according to the invention is determined on a recombinant guanylate cyclase reporter cell line, as described in F. Wunder et al., Anal. Biochem. 339, 104-112 (2005).

| SMILES | IC50 (aorta rings; Oryctolagus cuniculus) | IC50 [1] | MEC (minimal effective concentration) [2] | IC50 (aorta rings) |
| --- | --- | --- | --- | --- |
| CC1(C)C(=O)Nc2nc(-c3nn(Cc4ccccc4F)c4ncc(F)cc34)nc(NCC(O)C(F)(F)F)c21 (single isomer, unassigned) [Example 96-1, 2-[5-Fluoro-1-(2-fluorobenzyl)-1H-pyrazolo[3,4-b]pyridin-3-yl]-5,5-dimethyl-4-[(3,3,3-trifluoro-2-hydroxypropyl)amino]-5,7-dihydro-6H-pyrrolo[2,3-d]pyrimidin-6-one] |  | 150 nM | 0.1 μm | 1470 nM |
| COc1nc(-c2nn(Cc3ccccc3F)c3ncccc23)nc2c1C(C)(C)C(=O)N2 [Example 1, 2-[1-(2-Fluorobenzyl)-1H-pyrazolo[3,4-b]pyridin-3-yl]-4-methoxy-5,5-dimethyl-5,7-dihydro-6H-pyrrolo[2,3-d]pyrimidin-6-one] | 114 nM | 140 nM | 0.1 μm |  |
| CC1(C)C(=O)Nc2nc(-c3nn(Cc4ccccc4F)c4ncc(F)cc34)nc(NCCC(F)(F)F)c21 [Example 5, 2-[5-Fluoro-1-(2-fluorobenzyl)-1H-pyrazolo[3,4-b]pyridin-3-yl]-5,5-dimethyl-4-[(3,3,3-trifluoropropyl)amino]-5,7-dihydro-6H-pyrrolo[2,3-d]pyrimidin-6-one] | 285 nM | 130 nM | 0.03 μm |  |
| CC1(C)C(=O)Nc2nc(-c3nn(Cc4ccccc4F)c4ncc(F)cc34)nc(NCC(F)F)c21 [Example 7, 4-[(2,2-Difluoroethyl)amino]-2-[5-fluoro-1-(2-fluorobenzyl)-1H-pyrazolo[3,4-b]pyridin-3-yl]-5,5-dimethyl-5,7-dihydro-6H-pyrrolo[2,3-d]pyrimidin-6-one] | 200 nM | 110 nM | 0.1 μm |  |
| CC1(C)C(=O)Nc2nc(-c3nn(Cc4ccccc4F)c4ncc(F)cc34)nc(N3CC(F)C3)c21 [Example 8, 4-(3-Fluoroazetidin-1-yl)-2-[5-fluoro-1-(2-fluorobenzyl)-1H-pyrazolo[3,4-b]pyridin-3-yl]-5,5-dimethyl-5,7-dihydro-6H-pyrrolo[2,3-d]pyrimidin-6-one] | 309 nM | 400 nM | 0.3 μm |  |
| CC1(C)C(=O)Nc2nc(-c3nn(Cc4ccccc4F)c4ncc(F)cc34)nc(NC(C3CC3)C3CC3)c21 [Example 9, 4-[(Dicyclopropylmethyl)amino]-2-[5-fluoro-1-(2-fluorobenzyl)-1H-pyrazolo[3,4-b]pyridin-3-yl]-5,5-dimethyl-5,7-dihydro-6H-pyrrolo[2,3-d]pyrimidin-6-one] | 21000 nM | 230 nM | 0.1 μm |  |
| CC1(C)C(=O)Nc2nc(-c3nc(Cc4c(F)ccc(F)c4F)n4cc(Cl)ccc34)nc(NCCC(F)(F)F)c21 [Example 13, 2-[6-Chloro-3-(2,3,6-trifluorobenzyl)imidazo[1,5-a]pyridin-1-yl]-5,5-dimethyl-4-[(3,3,3-trifluoropropyl)amino]-5,7-dihydro-6H-pyrrolo[2,3-d]pyrimidin-6-one] | 4970 nM | 80 nM | 0.1 μm |  |

These reach a lower IC50 [1]. Values come first.

| IC50 (aorta rings; Oryctolagus cuniculus) | IC50 [1] | MEC (minimal effective concentration) [2] | IC50 (aorta rings) | SMILES |
| --- | --- | --- | --- | --- |
| 1450 nM | 12 nM | 1 μm |  | CC1(C)C(=O)Nc2nc(-c3nn(Cc4ccccc4F)c4ncccc34)nc(N3CCC(N)C3)c21 (racemic) [Example 106, 4-(3-Aminopyrrolidin-1-yl)-2-[1-(2-fluorobenzyl)-1H-pyrazolo[3,4-b]pyridin-3-yl]-5,5-dimethyl-5,7-dihydro-6H-pyrrolo[2,3-d]pyrimidin-6-one] |
|  | 26 nM | 0.01 μm | 601 nM | CC1(C)C(=O)Nc2nc(-c3nn(Cc4ccccc4F)c4ncc(F)cc34)nc(NCC(O)C(F)(F)F)c21 (single isomer, unassigned) [Example 96-2, 2-[5-Fluoro-1-(2-fluorobenzyl)-1H-pyrazolo[3,4-b]pyridin-3-yl]-5,5-dimethyl-4-[(3,3,3-trifluoro-2-hydroxypropyl)amino]-5,7-dihydro-6H-pyrrolo[2,3-d]pyrimidin-6-one] |
| 54 nM | 8 nM | 0.3 μm |  | CC1(C)C(=O)Nc2nc(-c3nn(Cc4ccccc4F)c4ncc(F)cc34)nc(NCCO)c21 [Example 2, 2-[5-Fluoro-1-(2-fluorobenzyl)-1H-pyrazolo[3,4-b]pyridin-3-yl]-4-[(2-hydroxyethyl)amino]-5,5-dimethyl-5,7-dihydro-6H-pyrrolo[2,3-d]pyrimidin-6-one] |
| 469 nM | 46 nM | 3.0 μm |  | CC(C)(N)CNc1nc(-c2nn(Cc3ccccc3F)c3ncc(F)cc23)nc2c1C(C)(C)C(=O)N2 [Example 3, 4-[(2-Amino-2-methylpropyl)amino]-2-[5-fluoro-1-(2-fluorobenzyl)-1H-pyrazolo[3,4-b]pyridin-3-yl]-5,5-dimethyl-5,7-dihydro-6H-pyrrolo[2,3-d]pyrimidin-6-one] |
| 62 nM | 6 nM | 0.1 μm |  | CC(C)(O)CNc1nc(-c2nn(Cc3ccccc3F)c3ncc(F)cc23)nc2c1C(C)(C)C(=O)N2 [Example 4, 2-[5-Fluoro-1-(2-fluorobenzyl)-1H-pyrazolo[3,4-b]pyridin-3-yl]-4-[(2-hydroxy-2-methylpropyl)amino]-5,5-dimethyl-5,7-dihydro-6H-pyrrolo[2,3-d]pyrimidin-6-one] |
| 552 nM | 52 nM | 0.3 μm |  | CC1(C)C(=O)Nc2nc(-c3nn(Cc4ccccc4F)c4ncc(F)cc34)nc(NCC3CC3)c21 [Example 10, 4-[(Cyclopropylmethyl)amino]-2-[5-fluoro-1-(2-fluorobenzyl)-1H-pyrazolo[3,4-b]pyridin-3-yl]-5,5-dimethyl-5,7-dihydro-6H-pyrrolo[2,3-d]pyrimidin-6-one] |
| 663 nM | 48 nM | 0.3 μm |  | CC1(C)C(=O)Nc2nc(-c3nn(Cc4ccccc4F)c4ncc(F)cc34)nc(NCC(F)(F)F)c21 [Example 11, 2-[5-Fluoro-1-(2-fluorobenzyl)-1H-pyrazolo[3,4-b]pyridin-3-yl]-5,5-dimethyl-4-[(2,2,2-trifluoroethyl)amino]-5,7-dihydro-6H-pyrrolo[2,3-d]pyrimidin-6-one] |
| 631 nM | 50 nM | 0.1 μm |  | CC1(C)C(=O)Nc2nc(-c3nn(Cc4ncccc4F)c4ncc(F)cc34)nc(NCCC(F)(F)F)c21 [Example 12, 2-{5-Fluoro-1-[(3-fluoropyridin-2-yl)methyl]-1H-pyrazolo[3,4-b]pyridin-3-yl}-5,5-dimethyl-4-[(3,3,3-trifluoropropyl)amino]-5,7-dihydro-6H-pyrrolo[2,3-d]pyrimidin-6-one] |

Reference: patent US8859569B2, “Substituted annellated pyrimidines and use thereof” (Bayer Pharma Aktiengesellschaft, priority 2011, dated 2014)
